Assay results from patent publication US20250215029A1 (Recludix Pharma, Inc., priority 2022, published 2025).

These molecules were tested against T1, pY705-STAT3 in PBMC (Homo sapiens, UniProt P40763) (assay: MSD-pSTAT-PBMC Assay (pSTAT3, IL-6 stimulated)). Conditions: PBMC, compound 3 hrs, then 10 ng/mL IL-6 for 10 min; Table 115; read-out: STAT3.
T1 construct: Cryopreserved Peripheral Blood Mononuclear Cells (PBMC) are from AllCells; host or cells: cryopreserved PBMC
Format: cell-based
In short: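 Cells are preincubated with compound for 3 hrs, then stimulated for 10 min, IL-4 at 1 ng/mL driving STAT6 phosphorylation and IL-6 at 10 ng/mL driving STAT3. Phospho-STAT in lysates is quantified by MSD immunoassay, and IC50 is fitted after subtracting unstimulated wells.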

T1 sequence (P40763 whole entry): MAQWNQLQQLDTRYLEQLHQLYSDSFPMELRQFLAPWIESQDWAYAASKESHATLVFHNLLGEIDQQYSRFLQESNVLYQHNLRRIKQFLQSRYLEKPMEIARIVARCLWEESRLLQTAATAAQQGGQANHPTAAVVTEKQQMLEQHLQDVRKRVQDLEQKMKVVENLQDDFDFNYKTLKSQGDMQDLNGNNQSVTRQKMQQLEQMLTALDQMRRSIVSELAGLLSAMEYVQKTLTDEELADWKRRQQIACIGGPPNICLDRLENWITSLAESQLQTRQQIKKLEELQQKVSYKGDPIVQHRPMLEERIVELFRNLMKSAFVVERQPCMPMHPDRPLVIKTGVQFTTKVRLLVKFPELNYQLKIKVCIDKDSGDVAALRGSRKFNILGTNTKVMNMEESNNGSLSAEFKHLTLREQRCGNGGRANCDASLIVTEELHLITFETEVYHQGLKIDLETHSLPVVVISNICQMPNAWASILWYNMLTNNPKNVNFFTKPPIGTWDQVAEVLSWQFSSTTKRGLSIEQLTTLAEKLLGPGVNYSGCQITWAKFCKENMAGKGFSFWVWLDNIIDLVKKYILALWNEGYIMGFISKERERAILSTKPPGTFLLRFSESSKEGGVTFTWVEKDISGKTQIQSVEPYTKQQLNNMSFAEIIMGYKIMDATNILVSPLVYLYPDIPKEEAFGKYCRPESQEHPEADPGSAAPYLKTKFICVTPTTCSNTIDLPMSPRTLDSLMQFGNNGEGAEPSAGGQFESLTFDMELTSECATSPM

SMILES | IC50 [nM]
CCCCOC(=O)[C@H](C)NP(=O)(Cc1ccc2sc(C(=O)N[C@H]3CCC[C@H]4CC[C@@H](C(=O)N5CC(c6cccnc6)C5)N4C3=O)cc2c1)N[C@@H](C)C(=O)OCCCC [Compound 420, dibutyl 2,2′-((((2-(((3S,6S,9aS)-5-oxo-3-(3-(pyridin-3-yl)azetidine-1-carbonyl)octahydro-1H-pyrrolo[1,2-a]azepin-6-yl)carbamoyl)benzo [b]thiophen-5-yl)methyl)phosphoryl)bis(azanediyl)) (2S,2′S)-dipropionate] | 100 to 1000
CCOC(=O)[C@H](C)NP(=O)(Cc1ccc2sc(C(=O)N[C@H]3CCC[C@H]4CC[C@@H](C(=O)N5CC(c6cccnc6)C5)N4C3=O)cc2c1)Oc1ccccc1 (stereo partly drawn) [Compound 422, ethyl (((2-(((3S,6S,9aS)-5-oxo-3-(3-(pyridin-3-yl)azetidine-1-carbonyl)octahydro-1H-pyrrolo[1,2-a]azepin-6-yl)carbamoyl)benzo [b]thiophen-5-yl)methyl)(phenoxy)phosphoryl)-L-alaninate] | < 100
CCCOC(=O)[C@H](C)NP(=O)(Cc1ccc2sc(C(=O)N[C@H]3CCC[C@H]4CC[C@@H](C(=O)N5CC(c6cccnc6)C5)N4C3=O)cc2c1)N1CCOCC1 (stereo partly drawn) [Compound 426, propyl (morpholino((2-(((3S,6S,9aS)-5-oxo-3-(3-(pyridin-3-yl)azetidine-1-carbonyl)octahydro-1H-pyrrolo[1,2-a]azepin-6-yl)carbamoyl)benzo [b]thiophen-5-yl)methyl)phosphoryl)-L-alaninate] | > 3000
CCCOC(=O)[C@H](C)NP(=O)(Cc1ccc2sc(C(=O)N[C@H]3CCC[C@H]4CC[C@@H](C(=O)N5CC(c6cccnc6)C5)N4C3=O)cc2c1)OCC(F)(F)F (stereo partly drawn) [Compound 428, propyl (((2-(((3S,6S,9aS)-5-oxo-3-(3-(pyridin-3-yl)azetidine-1-carbonyl)octahydro-1H-pyrrolo[1,2-a]azepin-6-yl)carbamoyl)benzo [b]thiophen-5-yl)methyl)(2,2,2-trifluoroethoxy)phosphoryl)-L-alaninate] | < 100
CCCOC(=O)[C@H](COC)NP(=O)(Cc1ccc2sc(C(=O)N[C@H]3CCC[C@H]4CC[C@@H](C(=O)N5CC(c6cccnc6)C5)N4C3=O)cc2c1)Oc1ccccc1 (stereo partly drawn) [Compound 430, propyl O-methyl-N-(((2-(((3S,6S,9aS)-5-oxo-3-(3-(pyridin-3-yl)azetidine-1-carbonyl)octahydro-1H-pyrrolo[1,2-a]azepin-6-yl)carbamoyl)benzo [b]thiophen-5-yl)methyl)(phenoxy)phosphoryl)-L-serinate] | 100 to 1000
CCCOC(=O)[C@H](CCOC)NP(=O)(Cc1ccc2sc(C(=O)N[C@H]3CCC[C@H]4CC[C@@H](C(=O)N5CC(c6cccnc6)C5)N4C3=O)cc2c1)Oc1ccccc1 (stereo partly drawn) [Compound 431, propyl O-methyl-N-(((2-(((3S,6S,9aS)-5-oxo-3-(3-(pyridin-3-yl)azetidine-1-carbonyl)octahydro-1H-pyrrolo[1,2-a]azepin-6-yl)carbamoyl)benzo [b]thiophen-5-yl)methyl)(phenoxy)phosphoryl)-L-homoserinate] | 100 to 1000
CCCOC(=O)[C@H](Cc1ccccn1)NP(=O)(Cc1ccc2sc(C(=O)N[C@H]3CCC[C@H]4CC[C@@H](C(=O)N5CC(c6cccnc6)C5)N4C3=O)cc2c1)Oc1ccccc1 (stereo partly drawn) [Compound 432, propyl (2S)-2-((((2-(((3S,6S,9aS)-5-oxo-3-(3-(pyridin-3-yl)azetidine-1-carbonyl)octahydro-1H-pyrrolo[1,2-a]azepin-6-yl)carbamoyl)benzo [b]thiophen-5-yl)methyl)(phenoxy)phosphoryl)amino)-3-(pyridin-2-yl)propanoate] | 100 to 1000
CCCOC(=O)[C@H](C)NP(=O)(Cc1ccc2sc(C(=O)N[C@H]3CCC[C@H]4CC[C@@H](C(=O)N5CC(c6cccnc6)C5)N4C3=O)cc2c1)N1CCCC1=O (stereo partly drawn) [Compound 433, propyl (((2-(((3S,6S,9aS)-5-oxo-3-(3-(pyridin-3-yl)azetidine-1-carbonyl)octahydro-1H-pyrrolo[1,2-a]azepin-6-yl)carbamoyl)benzo [b]thiophen-5-yl)methyl)(2-oxopyrrolidin-1-yl)phosphoryl)-L-alaninate] | 1000 to 3000
CCCOC(=O)C1(NP(=O)(Cc2ccc3sc(C(=O)N[C@H]4CCC[C@H]5CC[C@@H](C(=O)N6CC(c7cccnc7)C6)N5C4=O)cc3c2)Oc2ccccc2)CC1 (stereo partly drawn) [Compound 434, propyl 1-((((2-(((3S,6S,9aS)-5-oxo-3-(3-(pyridin-3-yl)azetidine-1-carbonyl)octahydro-1H-pyrrolo[1,2-a]azepin-6-yl)carbamoyl)benzo [b]thiophen-5-yl)methyl)(phenoxy)phosphoryl)amino) cyclopropane-1-carboxylate] | 100 to 1000
CCCOC(=O)[C@H](C)NP(=O)(Oc1ccccc1)C(C)c1ccc2sc(C(=O)N[C@H]3CCC[C@H]4CC[C@@H](C(=O)N5CC(c6cccnc6)C5)N4C3=O)cc2c1 (stereo partly drawn) [Compound 435, propyl ((1-(2-(((3S,6S,9aS)-5-oxo-3-(3-(pyridin-3-yl)azetidine-1-carbonyl)octahydro-1H-pyrrolo[1,2-a]azepin-6-yl)carbamoyl)benzo [b]thiophen-5-yl)ethyl)(phenoxy)phosphoryl)-L-alaninate] | 100 to 1000
CCCOC(=O)[C@H](C)NP(=O)(Cc1ccc2sc(C(=O)N[C@H]3CCC[C@H]4CC[C@@H](C(=O)N5CC(c6cccnc6)C5)N4C3=O)cc2c1)OCC(C)(F)F (stereo partly drawn) [Compound 437, propyl ((2,2-difluoropropoxy)((2-(((3S,6S,9aS)-5-oxo-3-(3-(pyridin-3-yl)azetidine-1-carbonyl)octahydro-1H-pyrrolo[1,2-a]azepin-6-yl)carbamoyl)benzo [b]thiophen-5-yl)methyl)phosphoryl)-L-alaninate] | 100 to 1000
CCCOC(=O)[C@H](C)NP(=O)(Cc1ccc2sc(C(=O)N[C@H]3CCC[C@H]4CC[C@@H](C(=O)N5CC(c6cccnc6)C5)N4C3=O)cc2c1)OCCOC (stereo partly drawn) [Compound 438, propyl ((2-methoxyethoxy)((2-(((3S,6S,9aS)-5-oxo-3-(3-(pyridin-3-yl)azetidine-1-carbonyl)octahydro-1H-pyrrolo[1,2-a]azepin-6-yl)carbamoyl)benzo [b]thiophen-5-yl)methyl)phosphoryl)-L-alaninate] | 1000 to 3000
CCCOC(=O)[C@H](C)NP(=O)(Cc1ccc2sc(C(=O)N[C@H]3CCC[C@H]4CC[C@@H](C(=O)N5CC(c6cccnc6)C5)N4C3=O)cc2c1)OCC (stereo partly drawn) [Compound 439, propyl (ethoxy((2-(((3S,6S,9aS)-5-oxo-3-(3-(pyridin-3-yl)azetidine-1-carbonyl)octahydro-1H-pyrrolo[1,2-a]azepin-6-yl)carbamoyl)benzo [b]thiophen-5-yl)methyl)phosphoryl)-L-alaninate] | 100 to 1000
CCCOC(=O)[C@H](C)N[P@@](=O)(Oc1ccccc1)[C@@H](F)c1ccc2sc(C(=O)N[C@H]3CCC[C@H]4CC[C@@H](C(=O)N5CC(c6cccnc6)C5)N4C3=O)cc2c1 [Compound 447] | < 100
CCCOC(=O)[C@H](C)N[P@@](=O)(Oc1ccccc1)[C@H](F)c1ccc2sc(C(=O)N[C@H]3CCC[C@H]4CC[C@@H](C(=O)N5CC(c6cccnc6)C5)N4C3=O)cc2c1 [Compound 464] | < 100
CCCOC(=O)[C@H](C)NP(=O)(Oc1ccccc1)[C@H](F)c1ccc2sc(C(=O)N[C@H]3CCC[C@H]4CC[C@@H](C(=O)N5CC(c6cnccc6OCC)C5)N4C3=O)cc2c1 (stereo partly drawn) [Compound 484, propyl (((S)-(2-(((3S,6S,9aS)-3-(3-(4-ethoxypyridin-3-yl)azetidine-1-carbonyl)-5-oxooctahydro-1H-pyrrolo[1,2-a]azepin-6-yl)carbamoyl)benzo [b]thiophen-5-yl)fluoromethyl) (phenoxy)phosphoryl)-L-alaninate] | < 100
CCCOC(=O)[C@H](C)NP(=O)(Oc1ccccc1)[C@@H](F)c1ccc2sc(C(=O)N[C@H]3CC[C@@H](CC)C[C@H]4CC[C@@H](C(=O)N5CC(c6cnccc6N6CCC6)C5)N4C3=O)cc2c1 (stereo partly drawn) [Compound 493, propyl (((R)-(2-(((3S,6S,9R,10aR)-3-(3-(4-(azetidin-1-yl)pyridin-3-yl)azetidine-1-carbonyl)-9-ethyl-5-oxodecahydropyrrolo [1,2-a]azocin-6-yl)carbamoyl)benzo [b]thiophen-5-yl)fluoromethyl) (phenoxy)phosphoryl)-L-alaninate] | < 100
CCCOC(=O)[C@H](C)NP(=O)(Oc1ccccc1)[C@@H](F)c1ccc2sc(C(=O)N[C@H]3CCC[C@H]4CC[C@@H](C(=O)N5CC(c6cnccc6OCC)C5)N4C3=O)cc2c1 (stereo partly drawn) [Compound 494, propyl (((R)-(2-(((3S,6S,9aS)-3-(3-(4-ethoxypyridin-3-yl)azetidine-1-carbonyl)-5-oxooctahydro-1H-pyrrolo[1,2-a]azepin-6-yl)carbamoyl)benzo [b]thiophen-5-yl)fluoromethyl) (phenoxy)phosphoryl)-L-alaninate] | < 100
CCOC(=O)[C@H](CC)NP(=O)(Cc1ccc2sc(C(=O)N[C@H]3CCC[C@H]4CC[C@@H](C(=O)N5CC(c6cccnc6)C5)N4C3=O)cc2c1)Oc1ccccc1 (stereo partly drawn) [Compound 944, ethyl (2S)-2-((((2-(((3S,6S,9aS)-5-oxo-3-(3-(pyridin-3-yl)azetidine-1-carbonyl)octahydro-1H-pyrrolo[1,2-a]azepin-6-yl)carbamoyl)benzo [b]thiophen-5-yl)methyl)(phenoxy)phosphoryl)amino) butanoate] | 100 to 1000

Same assay, conditions: STAT3, PBMC, compound 3 hrs, then 10 ng/mL IL-6 for 10 min; Table 115

SMILES | IC50 [nM]
CCCOC(=O)C(C)(C)NP(=O)(Cc1ccc2sc(C(=O)N[C@H]3CCC[C@H]4CC[C@@H](C(=O)N5CC(c6cccnc6)C5)N4C3=O)cc2c1)Oc1ccccc1 (stereo partly drawn) [Compound 445, propyl 2-methyl-2-((((2-(((3S,6S,9aS)-5-oxo-3-(3-(pyridin-3-yl)azetidine-1-carbonyl)octahydro-1H-pyrrolo[1,2-a]azepin-6-yl)carbamoyl)benzo [b]thiophen-5-yl)methyl)(phenoxy)phosphoryl)amino) propanoate] | < 100
